Values quoted from earlier work as cited in patent publication US5041577A, “Organogermanium compounds, processes for producing the same, and agent for inhibiting the activity of opioid peptide-degrading enzyme” (Asai Germanium Research Institute Co., Ltd., priority 1989, dated 1991).

Experiments:
[1] = system: spontaneous hypertensive rats

O=C(O)C[CH2][Ge](=[O])[O][Ge](=[O])[CH2]CC(=O)O [carboxyethylgermanium sesquioxide]
hypotensive action [1]: shows a hypotensive action | amyloidosis-alleviating action (amyloidosis): amyloidosis-alleviating action | macrophage-augmenting action (macrophage): macrophage-augmenting action | interferon-inducing action (interferon): interferon-inducing action | antitumor action (tumor): antitumor action
